Usually IC50 stands for the point on the concentration scale where inhibition reaches its midpoint.

Structures are written as SMILES. Several values for one entry are separate records, joined by “and”; a condition that tells them apart may be missing. Equal entries are not always repeated. Bounds are passed on as bounds.

Results on 2 molecules are retold here after paper PMC8632988, “Inhibition of SYK and cSrc kinases can protect bone and cartilage in preclinical models of osteoarthritis and rheumatoid arthritis” (Scientific Reports, 2021).

One experiment addresses T1, c-Src (Homo sapiens, UniProt P12931).
T1 construct: purchased Reaction Biology Corporation (assay service)
The experiment is described as follows: cSrc inhibition and kinase selectivity profile assay. The note with it: for remaining activity at 0.5 µM: 500 nM, relative to DMSO, read-out: Residual enzymatic activity. It counts as biochemical. As to the method: (§1) The activity of MT-SYK-03 against cSrc kinase and selectivity profile towards other 341 kinases was determined at Reaction Biology Corporation (Malvern, PA, USA) using the standard kinase assay protocol. […]; unbound phosphate was removed by extensive washing of filters in phosphoric acid. Kinase activity data was expressed as the percent remaining kinase activity in test samples compared to vehicle (dimethyl sulfoxide) reactions based on the radioactivity of reaction products (see Table S2). Experiment was replicated twice.

The next experiment concerns the target T2, DYRK4 (Homo sapiens, UniProt Q9NR20).
T2 construct: purchased Reaction Biology Corporation
The experiment is described as follows: Kinase selectivity profile assay. It is filed as biochemical. The note with it: 500 nM; relative to DMSO; read-out: Residual enzymatic activity. As to the method: The activity of MT-SYK-03 against cSrc kinase and selectivity profile towards other 341 kinases was determined at Reaction Biology Corporation (Malvern, PA, USA) using the standard kinase assay protocol. […] Kinase activity data was expressed as the percent remaining kinase activity in test samples compared to vehicle (dimethyl sulfoxide) reactions based on the radioactivity of reaction products (see Table S2). Experiment was replicated twice.

Another experiment relates to 341 kinases. The experiment in a line: Kinase selectivity profile, whole panel. It is filed as biochemical, human. Conditions: 500 nM. As to the method:
as §1

For the next experiment, the target named is T3, ARK5/NUAK1 (Homo sapiens, UniProt O60285).
T3 construct: purchased Reaction Biology Corporation (assay service)
The experiment in a line: Kinase selectivity profile assay. It is filed as biochemical. The source says:
(§2) Kinase activity data was expressed as the percent remaining kinase activity in test samples compared to vehicle (dimethyl sulfoxide) reactions based on the radioactivity of reaction products (see Table S2). Experiment was replicated twice.

In the next experiment the target is T4, Aurora A (Homo sapiens, UniProt O14965).
T4 construct: purchased Reaction Biology Corporation
The experiment is described as follows: Kinase selectivity profile assay. Conditions: 500 nM; relative to DMSO; read-out: Residual enzymatic activity. It counts as biochemical.
Source text: as §2

The next experiment addresses T5, BMX/ETK (Homo sapiens, UniProt P51813).
T5 construct: purchased Reaction Biology Corporation (assay service)
The experiment is described as follows: Kinase selectivity profile assay. It counts as biochemical.
Source text: as §2

Another experiment addresses T6, CAMK1a (Homo sapiens, UniProt Q14012).
T6 construct: purchased Reaction Biology Corporation
The experiment is described as follows: Kinase selectivity profile assay. The note with it: 500 nM; relative to DMSO; read-out: Residual enzymatic activity. It counts as biochemical.
Source text: as §2

A further experiment concerns the target T7, CAMK1g (Homo sapiens, UniProt Q96NX5).
T7 construct: purchased Reaction Biology Corporation
The experiment in a line: Kinase selectivity profile assay. It counts as biochemical. The note with it: 500 nM; relative to DMSO; read-out: Residual enzymatic activity.
Source text: as §2

The target in another experiment is T8, EGFR (Homo sapiens, UniProt P00533).
T8 construct: purchased Reaction Biology Corporation
The experiment is described as follows: Kinase selectivity profile assay. It is filed as biochemical. The note with it: 500 nM, relative to DMSO.
Source text: as §2

The target in a further experiment is T9, EPHA2 (Homo sapiens, UniProt P29317).
T9 construct: purchased Reaction Biology Corporation
The experiment in a line: Kinase selectivity profile assay. It counts as biochemical. Conditions: 500 nM, relative to DMSO.
Source text: as §2

The next experiment concerns the target T10, FYN (Homo sapiens, UniProt P06241).
T10 construct: purchased Reaction Biology Corporation (assay service)
The experiment is described as follows: Kinase selectivity profile assay. It counts as biochemical.
Source text: as §2

The target of a further experiment is T11, IKKa/CHUK (Homo sapiens, UniProt O15111).
T11 construct: purchased Reaction Biology Corporation
The experiment is described as follows: Kinase selectivity profile assay. It counts as biochemical. The note with it: 500 nM; relative to DMSO; read-out: Residual enzymatic activity.
Source text: as §2

A further experiment deals with T12, ITK (Homo sapiens, UniProt Q08881).
T12 construct: purchased Reaction Biology Corporation
The experiment is described as follows: Kinase selectivity profile assay. It is filed as biochemical. The note with it: 500 nM; relative to DMSO; read-out: Residual enzymatic activity.
Source text: as §2

A further experiment has as its target T13, KDR/VEGFR2 (Homo sapiens, UniProt P35968).
T13 construct: purchased Reaction Biology Corporation
The experiment is described as follows: Kinase selectivity profile assay. It counts as biochemical. Conditions: 500 nM, relative to DMSO.
Source text: as §2

In a further experiment the target is T14, MARK1 (Homo sapiens, UniProt Q9P0L2).
T14 construct: purchased Reaction Biology Corporation
The experiment in a line: Kinase selectivity profile assay. It is filed as biochemical. Conditions: 500 nM; relative to DMSO; read-out: Residual enzymatic activity.
Source text: as §2

A further experiment has as its target T15, MARK2/PAR-1Ba (Homo sapiens, UniProt Q7KZI7).
T15 construct: purchased Reaction Biology Corporation
The experiment is described as follows: Kinase selectivity profile assay. It counts as biochemical. The note with it: 500 nM; relative to DMSO; read-out: Residual enzymatic activity.
Source text: as §2

The target in the next experiment is T16, MARK3 (Homo sapiens, UniProt P27448).
T16 construct: purchased Reaction Biology Corporation
The experiment is described as follows: Kinase selectivity profile assay. It counts as biochemical. The note with it: 500 nM; relative to DMSO; read-out: Residual enzymatic activity.
Source text: as §2

In a further experiment the target is T17, MLK3/MAP3K11 (Homo sapiens, UniProt Q16584).
T17 construct: purchased Reaction Biology Corporation (Malvern, PA, USA)
The experiment is described as follows: Kinase selectivity profile assay. It counts as biochemical.
Source text: as §2

A further experiment concerns the target T18, NEK11 (Homo sapiens, UniProt Q8NG66).
T18 construct: purchased Reaction Biology Corporation (Malvern, PA, USA)
The experiment in a line: Kinase selectivity profile assay. It counts as biochemical.
Source text: as §2

For another experiment, the target named is T19, NEK2 (Homo sapiens, UniProt P51955).
T19 construct: purchased Reaction Biology Corporation
The experiment in a line: Kinase selectivity profile assay. It is filed as biochemical. Conditions: 500 nM; relative to DMSO; read-out: Residual enzymatic activity.
Source text: as §2

Another experiment deals with T20, PKG2/PRKG2 (Homo sapiens, UniProt Q13237).
T20 construct: purchased Reaction Biology Corporation
The experiment is described as follows: Kinase selectivity profile assay. It is filed as biochemical. The note with it: 500 nM; relative to DMSO; read-out: Residual enzymatic activity.
Source text: as §2

The target of a further experiment is T21, PYK2 (Homo sapiens, UniProt Q14289).
T21 construct: purchased Reaction Biology Corporation
The experiment is described as follows: Kinase selectivity profile assay. The note with it: 500 nM; relative to DMSO; read-out: Residual enzymatic activity. It is filed as biochemical.
Source text: as §2

For the next experiment, the target named is T22, ROS/ROS1 (Homo sapiens, UniProt P08922).
T22 construct: purchased Reaction Biology Corporation (Malvern, PA, USA)
The experiment in a line: Kinase selectivity profile assay. It counts as biochemical.
Source text: as §2

The next experiment has as its target T23, SIK2 (Homo sapiens, UniProt Q9H0K1).
T23 construct: purchased Reaction Biology Corporation (Malvern, PA, USA)
The experiment is described as follows: Kinase selectivity profile assay. It is filed as biochemical.
Source text: as §2

A further experiment has as its target T24, TRKC (Homo sapiens, UniProt Q16288).
T24 construct: purchased Reaction Biology Corporation
The experiment is described as follows: Kinase selectivity profile assay. The note with it: 500 nM; relative to DMSO; read-out: Residual enzymatic activity. It counts as biochemical.
Source text: as §2

In another experiment the target is T25, ZIPK/DAPK3 (Homo sapiens, UniProt O43293).
T25 construct: purchased Reaction Biology Corporation
The experiment in a line: Kinase selectivity profile assay. The note with it: 500 nM; relative to DMSO; read-out: Residual enzymatic activity. It counts as biochemical.
Source text: as §2

The subject of experiment [1] is Sprague-Dowley rats, medial meniscal tear (MMT) model. The experiment is described as follows: Surgically induced meniscal tear OA in rats. It counts as in vivo, rat. Conditions: day 21. As to the method: Medial meniscal tear (MMT) model was performed at Pharmenterprises, Russia according to the published procedure[31] and approved by Ethics Committee of Pharmenterprises. Male 4-month old Sprague-Dowley rats were anesthetized with Zoletil (Vibrac, France) and Xylazine (Interchemie werken "De Adelaar" BV, Netherlands) mixture. The medial collateral ligament was transected, and the medial meniscus was grasped with a hemostat and reflected proximally toward the femur. The meniscus was transected and then skin was closed with sutures. 60–90 min after surgery rats were subcutaneously injected with flexoprofen (VIC GROUP, Russia). Treatment groups (20 rats each) were intragastrically treated with MT-SYK-03 (100 and 500 mg/kg) or vehicle control (0.5% methylcellulose solution) 24 h before OA induction and then once daily for 21 day. Active control group was subcutaneously injected with zoledronic acid (0.1 mg/kg) 24 h before OA induction and then once every three days for 21 day. After 21 day animals were sacrificed; surgically operated right knee was removed and used for image analysis.

Setting [2] is: 500 nM, relative to DMSO, read-out: Residual enzymatic activity.
Setting [3] is: 10-dose mode, threefold serial dilution from 10 μM.
The mark [4] stands for this setting: read-out: Residual enzymatic activity.
Where [5] appears, read: 100 mg/kg intragastrically once daily.
The mark [6] stands for this setting: 500 mg/kg intragastrically once daily.

T23 sequence (Q9H0K1 whole entry): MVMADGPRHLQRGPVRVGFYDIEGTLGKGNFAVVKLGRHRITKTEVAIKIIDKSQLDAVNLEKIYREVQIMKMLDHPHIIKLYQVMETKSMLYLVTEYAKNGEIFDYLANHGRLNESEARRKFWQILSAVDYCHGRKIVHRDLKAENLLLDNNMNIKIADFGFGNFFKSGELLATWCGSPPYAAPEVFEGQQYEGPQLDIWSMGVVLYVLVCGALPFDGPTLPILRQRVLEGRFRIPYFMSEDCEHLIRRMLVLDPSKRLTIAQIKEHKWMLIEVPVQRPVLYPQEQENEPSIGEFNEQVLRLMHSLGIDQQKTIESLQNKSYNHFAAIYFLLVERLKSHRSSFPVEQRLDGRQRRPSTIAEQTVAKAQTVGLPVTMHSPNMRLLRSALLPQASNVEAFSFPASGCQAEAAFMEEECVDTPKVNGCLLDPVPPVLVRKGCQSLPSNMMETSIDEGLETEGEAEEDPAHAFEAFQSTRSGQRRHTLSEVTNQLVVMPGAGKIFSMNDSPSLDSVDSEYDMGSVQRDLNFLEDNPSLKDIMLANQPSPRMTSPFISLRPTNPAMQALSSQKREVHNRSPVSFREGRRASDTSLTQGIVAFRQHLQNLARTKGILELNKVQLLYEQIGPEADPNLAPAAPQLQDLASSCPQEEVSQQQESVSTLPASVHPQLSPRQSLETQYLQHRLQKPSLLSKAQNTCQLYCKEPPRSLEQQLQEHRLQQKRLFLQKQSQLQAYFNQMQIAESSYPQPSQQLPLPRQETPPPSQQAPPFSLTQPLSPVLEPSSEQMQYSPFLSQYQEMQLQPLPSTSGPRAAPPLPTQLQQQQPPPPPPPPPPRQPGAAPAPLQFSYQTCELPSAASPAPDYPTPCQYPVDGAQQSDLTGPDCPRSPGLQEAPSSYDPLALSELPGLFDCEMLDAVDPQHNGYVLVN
T1 sequence (P12931 whole entry): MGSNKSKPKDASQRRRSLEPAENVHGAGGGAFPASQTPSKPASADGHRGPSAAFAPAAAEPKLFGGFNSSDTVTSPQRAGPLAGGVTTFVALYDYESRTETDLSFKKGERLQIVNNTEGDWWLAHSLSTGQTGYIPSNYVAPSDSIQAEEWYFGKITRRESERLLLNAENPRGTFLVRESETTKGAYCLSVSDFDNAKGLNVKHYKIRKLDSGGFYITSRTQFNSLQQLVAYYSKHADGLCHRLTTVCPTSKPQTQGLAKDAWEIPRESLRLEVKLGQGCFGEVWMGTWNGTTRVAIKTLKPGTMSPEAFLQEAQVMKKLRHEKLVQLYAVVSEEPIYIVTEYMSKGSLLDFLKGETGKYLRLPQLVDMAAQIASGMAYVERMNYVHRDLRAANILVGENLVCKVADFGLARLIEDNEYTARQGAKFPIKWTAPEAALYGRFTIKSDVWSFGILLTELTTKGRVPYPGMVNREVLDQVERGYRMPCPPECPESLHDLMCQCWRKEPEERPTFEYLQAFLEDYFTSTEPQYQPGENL
T5 sequence (P51813 whole entry): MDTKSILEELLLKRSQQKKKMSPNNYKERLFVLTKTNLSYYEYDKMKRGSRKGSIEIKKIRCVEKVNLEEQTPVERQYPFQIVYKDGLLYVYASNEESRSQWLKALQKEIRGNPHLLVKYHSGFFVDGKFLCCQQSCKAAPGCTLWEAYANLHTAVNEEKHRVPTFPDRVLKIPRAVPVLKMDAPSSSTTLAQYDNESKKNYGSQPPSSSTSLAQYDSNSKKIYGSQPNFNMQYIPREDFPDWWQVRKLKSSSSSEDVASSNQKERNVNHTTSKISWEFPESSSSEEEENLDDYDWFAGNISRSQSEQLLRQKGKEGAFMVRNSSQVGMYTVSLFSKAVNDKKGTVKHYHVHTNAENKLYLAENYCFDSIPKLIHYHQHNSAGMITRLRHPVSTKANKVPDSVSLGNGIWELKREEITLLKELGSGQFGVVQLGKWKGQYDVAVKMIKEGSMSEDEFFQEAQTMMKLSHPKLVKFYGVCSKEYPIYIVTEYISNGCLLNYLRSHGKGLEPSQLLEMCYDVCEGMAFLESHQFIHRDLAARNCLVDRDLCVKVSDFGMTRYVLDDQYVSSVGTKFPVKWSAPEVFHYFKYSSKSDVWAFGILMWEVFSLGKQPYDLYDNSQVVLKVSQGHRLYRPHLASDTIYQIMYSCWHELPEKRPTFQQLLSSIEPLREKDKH
T13 sequence (P35968 20-1356): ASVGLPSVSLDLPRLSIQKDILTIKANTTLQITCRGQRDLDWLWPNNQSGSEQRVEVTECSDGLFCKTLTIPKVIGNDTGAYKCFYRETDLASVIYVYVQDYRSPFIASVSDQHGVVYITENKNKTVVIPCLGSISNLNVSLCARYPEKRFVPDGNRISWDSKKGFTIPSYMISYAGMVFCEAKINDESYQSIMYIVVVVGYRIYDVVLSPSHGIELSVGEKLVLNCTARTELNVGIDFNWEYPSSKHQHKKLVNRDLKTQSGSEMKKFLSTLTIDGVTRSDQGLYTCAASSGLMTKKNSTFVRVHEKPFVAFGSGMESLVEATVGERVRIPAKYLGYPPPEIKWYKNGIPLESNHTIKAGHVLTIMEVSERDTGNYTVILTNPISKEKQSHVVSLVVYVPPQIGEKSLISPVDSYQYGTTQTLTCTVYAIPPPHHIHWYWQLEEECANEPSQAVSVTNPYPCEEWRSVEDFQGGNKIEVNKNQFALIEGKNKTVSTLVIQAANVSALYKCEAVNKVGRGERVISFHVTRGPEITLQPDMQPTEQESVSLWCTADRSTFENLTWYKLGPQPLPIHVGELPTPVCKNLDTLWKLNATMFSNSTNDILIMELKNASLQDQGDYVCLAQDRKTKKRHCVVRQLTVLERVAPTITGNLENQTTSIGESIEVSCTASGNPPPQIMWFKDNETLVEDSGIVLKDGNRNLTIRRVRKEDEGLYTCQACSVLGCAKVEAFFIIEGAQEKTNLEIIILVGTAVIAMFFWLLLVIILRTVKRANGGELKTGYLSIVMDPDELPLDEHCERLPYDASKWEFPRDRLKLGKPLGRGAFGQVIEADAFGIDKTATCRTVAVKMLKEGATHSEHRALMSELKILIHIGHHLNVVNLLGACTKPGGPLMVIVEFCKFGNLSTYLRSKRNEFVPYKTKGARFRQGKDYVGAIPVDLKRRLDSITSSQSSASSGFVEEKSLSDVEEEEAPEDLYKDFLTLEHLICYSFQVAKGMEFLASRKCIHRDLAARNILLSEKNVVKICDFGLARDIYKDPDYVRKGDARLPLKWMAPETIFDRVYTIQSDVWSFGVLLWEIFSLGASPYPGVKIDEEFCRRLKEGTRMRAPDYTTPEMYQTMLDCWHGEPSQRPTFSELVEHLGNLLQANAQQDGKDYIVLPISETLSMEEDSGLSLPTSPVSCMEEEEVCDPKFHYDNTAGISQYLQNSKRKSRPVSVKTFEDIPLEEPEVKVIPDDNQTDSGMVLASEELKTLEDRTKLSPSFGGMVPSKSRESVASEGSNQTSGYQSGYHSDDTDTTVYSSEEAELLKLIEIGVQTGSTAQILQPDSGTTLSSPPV
T2 sequence (Q9NR20 whole entry): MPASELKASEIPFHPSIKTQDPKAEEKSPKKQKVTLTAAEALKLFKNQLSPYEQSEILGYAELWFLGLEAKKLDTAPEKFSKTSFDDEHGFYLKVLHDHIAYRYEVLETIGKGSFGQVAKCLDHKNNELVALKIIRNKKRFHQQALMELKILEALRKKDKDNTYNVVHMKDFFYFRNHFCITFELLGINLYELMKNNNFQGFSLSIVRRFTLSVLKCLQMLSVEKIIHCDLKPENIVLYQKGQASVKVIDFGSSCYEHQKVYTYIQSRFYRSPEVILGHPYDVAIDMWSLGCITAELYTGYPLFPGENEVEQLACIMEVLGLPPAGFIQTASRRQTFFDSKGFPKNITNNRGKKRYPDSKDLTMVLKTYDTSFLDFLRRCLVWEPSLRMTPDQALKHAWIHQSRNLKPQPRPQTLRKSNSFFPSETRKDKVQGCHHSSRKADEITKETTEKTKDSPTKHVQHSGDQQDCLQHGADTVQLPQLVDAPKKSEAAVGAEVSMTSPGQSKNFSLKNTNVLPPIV
T18 sequence (Q8NG66 whole entry): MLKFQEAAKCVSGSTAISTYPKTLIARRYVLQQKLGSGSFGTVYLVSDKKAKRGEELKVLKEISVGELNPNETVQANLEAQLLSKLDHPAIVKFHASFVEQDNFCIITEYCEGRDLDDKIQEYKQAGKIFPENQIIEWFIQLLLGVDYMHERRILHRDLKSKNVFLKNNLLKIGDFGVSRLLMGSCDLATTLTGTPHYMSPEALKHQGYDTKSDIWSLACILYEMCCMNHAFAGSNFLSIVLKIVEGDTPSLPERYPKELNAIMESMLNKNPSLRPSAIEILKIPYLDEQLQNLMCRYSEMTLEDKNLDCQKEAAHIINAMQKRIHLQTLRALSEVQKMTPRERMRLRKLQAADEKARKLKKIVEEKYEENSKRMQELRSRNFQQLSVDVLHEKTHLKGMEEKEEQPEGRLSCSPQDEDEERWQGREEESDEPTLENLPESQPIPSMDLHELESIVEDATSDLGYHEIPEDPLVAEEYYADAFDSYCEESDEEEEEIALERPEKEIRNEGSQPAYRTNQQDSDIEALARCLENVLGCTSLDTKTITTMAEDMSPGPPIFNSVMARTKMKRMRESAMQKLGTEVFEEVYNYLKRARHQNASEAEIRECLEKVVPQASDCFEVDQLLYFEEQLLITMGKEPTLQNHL
T6 sequence (Q14012 whole entry): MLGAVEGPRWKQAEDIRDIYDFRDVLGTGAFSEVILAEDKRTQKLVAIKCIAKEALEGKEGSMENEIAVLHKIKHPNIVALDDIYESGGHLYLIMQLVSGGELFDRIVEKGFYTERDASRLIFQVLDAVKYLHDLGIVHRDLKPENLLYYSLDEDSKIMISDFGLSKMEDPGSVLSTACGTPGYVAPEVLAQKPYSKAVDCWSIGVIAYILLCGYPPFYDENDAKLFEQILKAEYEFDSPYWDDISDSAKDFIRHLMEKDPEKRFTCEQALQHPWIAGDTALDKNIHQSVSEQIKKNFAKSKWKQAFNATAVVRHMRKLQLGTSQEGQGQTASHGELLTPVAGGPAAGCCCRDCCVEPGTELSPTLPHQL

Take `COc1cc(Nc2ncc(F)c(Nc3ccc4c(n3)NC(=O)C(C)(C)O4)n2)cc(OC)c1OC` [R406, reference compound]: the remaining activity at 0.5 µM on c-Src was determined as 6.8%. In addition, the remaining activity at 0.5 µM at DYRK4 was determined as 77.1%. In the experiment on 341 kinases, the “Number of kinases inhibited by more than 50%” value was 104 kinases, the “Number of kinases inhibited by more than 80%” value turned out to be 50 kinases and the “Number of kinases inhibited by more than 90%” value came out at 26 kinases.

In the case of `COc1cc(Nc2ncnc(Nc3cc4c(cn3)NC(=O)C(C)(C)O4)n2)cc(OC)c1OC` [MT-SYK-03], the IC50 was 0.0142 µM and 0.023 to 0.04 µM and 0.014 µM on c-Src; 0.376 µM on ARK5/NUAK1 (setting [3]); 0.199 µM against BMX/ETK (setting [3]); 0.02 µM against FYN (setting [3]); 0.0256 µM against MLK3/MAP3K11 (setting [3]); 0.0261 µM against NEK11 (setting [3]). In addition, the IC50 was 0.0347 µM against ROS/ROS1 (setting [3]); 0.023 µM and 0.0234 µM against SIK2 (setting [3]). The remaining activity at 0.5 µM on c-Src was determined as 6.2%; at DYRK4, 104%; at ARK5/NUAK1 (setting [2]), 49.7%; on Aurora A, 74.4%; at BMX/ETK (setting [2]), 18%; at CAMK1a, 100%. Besides, the remaining activity at 0.5 µM was 99.2% at CAMK1g; above 54% at EGFR (setting [4]); above 54% on EPHA2 (setting [4]); 25.2% at FYN (setting [2]); 100% at IKKa/CHUK; 102% on ITK. The remaining activity at 0.5 µM on KDR/VEGFR2 (setting [4]) amounted to 88.6%; on MARK1 it was 95.7%; on MARK2/PAR-1Ba, 97.9%; at MARK3 it was 97.1%; on MLK3/MAP3K11 (setting [2]), 31.4%; on NEK11 (setting [2]) it was 35.9%. Moreover, the remaining activity at 0.5 µM on NEK2 amounted to 86%; at PKG2/PRKG2, 94.2%; at PYK2 it was 63.4%; at ROS/ROS1 (setting [2]), 25.9%; on SIK2 (setting [2]), 16.2%; at TRKC, 84.5%. Moreover, the remaining activity at 0.5 µM at ZIPK/DAPK3 was determined as 98.4%. The figures for the Residual enzymatic activity at EGFR, at EPHA2 and at KDR/VEGFR2 were 59.6%, 56.3% and “did not inhibit”, respectively. The Lesion area in experiment [1] (setting [5]) came out at 37.3 ± 3.3%; in experiment [1] (setting [6]) it was 30.5 ± 2.8%. The Lesion depth is 72.5 ± 6.0% in experiment [1] (setting [5]); 35.0 ± 3.0% and 35.0 ± 3.0& % in [1] (setting [6]). Also, the “Number of kinases inhibited by more than 50%” value in the experiment with 341 kinases worked out at 34 kinases. The “Number of kinases inhibited by more than 80%” value in the experiment with 341 kinases came to 13 kinases. Further, in the experiment on 341 kinases, the “Number of kinases inhibited by more than 90%” value is on record as “five”.
